System: FGFR
Assay: Kinase inhibition, cell-free enzymatic assay
Assay type: biochemical
Conditions: 1 mM ATP
Method: All data reported as IC50 values for kinase inhibition in cell-free enzymatic assays. Values determined @ 1 mM ATP.

IC50: > 12.5 µM
Compound: Cc1ccc(F)c(NC(=O)Nc2ccc(-c3cccc4[nH]nc(N)c34)cc2)c1 [RTK Inhibitor, N-[4-(3-amino-1H-indazol-4-yl)phenyl]-N′-(2-fluoro-5-methylphenyl) urea]

— patent publication US20140294970A1, “STABILIZED PHARMACEUTICAL SUB-MICRON SUSPENSIONS AND METHODS OF FORMING SAME” (Alcon Research, Ltd., priority 2008, published 2014)
